“Also recorded” adds a separate entry of the source.
Legend:
Format in all cases: in vivo, Sprague-Dawley rats
[1] = tested on: APAP-induced nephrotoxicity; test: Serum creatinine and BUN (kidney function) in APAP-induced toxicity animal model; settings: SD-rats, mean ± SD
Experimental: (§1) Male Sprague-Dawley rats (weighing 220-300 g) were obtained from Professor Dr. Gonzalez of the American Country Health Research Institute (USA), introduces three male and four female mice, pairs voluntarily reproduces. All of the experiments were performed in adherence with the National Institutes of Health Guidelines for the treatment of animals. All of the mice were maintained in a room with air/humidity control and a 12-h light/dark cycle, and allowed access to food and water ad libitum throughout the experiment.
(§2) In the single dose study of the antidote effect of APAP metabolic enzyme inhibition on APAP-induced nephrotoxicity, rats were randomly divided into 3 treatment groups: (1) a normal control group (NC, n=5), in which normal SD-rats were orally administrated with saline four times a day for multiple doses at a volume of 1 mL/kg; (2) an APAP control group (APAP, n=5), in which normal SD-rats were orally administrated with APAP in saline at dose of 1 g/kg (1,000 mg/kg) for single oral dose administration; (3) an positive control group (NAC, n=5), in which normal SD-rats were orally administrated with APAP and N-acetylcysteine (NAC) in saline at dose of 1 g/kg and 140 mg/kg for single oral dose administration; (4) the various selected antidote test groups (each groups, n=5), in which normal SD-rats were orally administered with APAP in saline at dose of 1,000 mg/kg and e various antidote agents each at dose of less than or equivalent to 200 mg per 60 kg person body weight of single oral dose administration. In addition, according to US FDA Guidance for Industry “Estimating the Maximum Safe Starting Dose in Initial Clinical Trials for Therapeutics in Adult Healthy Volunteers”, the HED (human equivalent dose) for a human adult of 60 kg can be calculated as follows: HED=animal dose (1,000 mg/kg in rats)×human body weight (60 kg)/6.2=9.677g (about 10 g).
(§3) At the end of the treatment, the animals were sacrificed under diethyl ether anesthesia. Blood was collected from the hearts of the mice into heparin tubes, and plasma was separated by centrifugation at 13,000×g for 5 min at 4° C. Aliquots of plasma were transferred to Eppendorf tubes and stored at −80° C. until analysis.
Serum creatinine and BUN levels were measured using the commercial kits (BEN) (Biochemical Enterprise, Milano, Italy) CR280 and BK151 in an automatic biochemical analyzer (ChemWell, Palm City, Fla.) at 340 nm and 510 nm, respectively.
(§4) All data are represented in mean ± standard deviation (SD) and the results are calculated using ANOVA to determine the significance. Statistical Package of the Social Science program (Version 13, SPSS Inc.) is used for calculations followed by post hoc test to examine the least significant difference for multiple comparisons so as to confirm the significant differences between groups and the average difference between groups was significant p<0.05.

[2] = tested on: APAP-induced hepatotoxicity; test: Plasma AST and ALT determination in APAP-induced toxicity animal model; settings: SD-rats, mean ± SD
Experimental: as §1
In the single dose study […], rats were randomly divided into 3 treatment groups: (1) a normal control group (NC, n=5), in which normal SD-rats were orally administrated with saline four times a day for multiple doses at a volume of 1 mL/kg; (2) an APAP control group (APAP, n=5), in which normal SD-rats were orally administrated with APAP in saline at dose of 1 g/kg (1,000 mg/kg) for single oral dose administration; (3) an positive control group (NAC, n=5), in which normal SD-rats were orally administrated with APAP and N-acetylcysteine (NAC) in saline at dose of 1 g/kg and 140 mg/kg for single oral dose administration; (4) the various selected antidote test groups (each groups, n=5), in which normal SD-rats were orally administered with APAP in saline at dose of 1,000 mg/kg and e various antidote agents each at dose of less than or equivalent to 200 mg per 60 kg person body weight of single oral dose administration. In addition, according to US FDA Guidance for Industry “Estimating the Maximum Safe Starting Dose in Initial Clinical Trials for Therapeutics in Adult Healthy Volunteers”, the HED (human equivalent dose) for a human adult of 60 kg can be calculated as follows: HED=animal dose (1,000 mg/kg in rats)×human body weight (60 kg)/6.2=9.677g (about 10 g).
as §3
Plasma enzyme activities (aspartate aminotransferase [AST] and alanine aminotransferase [ALT]) were determined at 37° C. by using a Synchron LXi 725 (Beckman Instruments, Palo Alto, Calif. USA) with kits provided by the manufacturer.
as §4

[3] = tested on: APAP-induced renal lesions; test: Histological examination of kidney (H&E) in APAP-induced toxicity animal model; settings: H&E stained kidney section, 200×
Experimental: as §1, §2
The kidney groups were fixed in 10% neutral formalin for 48-72 h. Then, tissues were trimmed and processed for a routine histopathological examination. […]

[4] = tested on: toxicity (nephrotoxicity and hepatotoxicity) caused by APAP; test: Overall antidote activity against toxicity caused by APAP (animal model); settings: rats given APAP 1,000 mg/kg; summary of Table 1
Experimental: as §1, §2

[5] = APAP alone 1,000 mg/kg single oral dose (toxicity control group), n=5
[6] = APAP alone 1,000 mg/kg single oral dose (toxicity control group), n=5, listed as AAP
[7] = APAP 1,000 mg/kg oral plus antidote at high dose
[8] = APAP 1,000 mg/kg oral plus antidote at low dose
[9] = APAP 1,000 mg/kg single oral dose plus antidote single oral dose, n=5

Compound: CC(=O)Nc1ccc(O)cc1 [APAP, N-acetyl-para-aminophenol]
- BUN (nephrotoxicity) [1, 5]: 87.8 ± 6.6 mg/dL
- Creatinine (nephrotoxicity) [1, 5]: 1.13 ± 0.17 mg/dL
- BUN (nephrotoxicity) [1, 6]: 87.8 ± 6.6 mg/dL
- Creatinine (nephrotoxicity) [1, 6]: 1.13 ± 0.17 mg/dL
- ALT (hepatotoxicity) [2, 5]: 382.3±32.1 IU/L
- AST (hepatotoxicity) [2, 5]: 591.0±59.2 IU/L
- ALT (hepatotoxicity) [2, 6]: 382.3 ± 32.1 IU/L
- AST (hepatotoxicity) [2, 6]: 591.0 ± 59.2 IU/L
- Kidney histology (renal lesions), FIG. 1 ([3]; acetaminophen 1 g/kg alone): severe renal lesions including necrosis, congestion and extravasation of red blood cells
- Kidney histology (renal lesions), FIG. 1 ([3]; acetaminophen 1 g/kg alone, listed as acetaminophen): Severe necrosis, congestion and extravasation of red blood cells were seen

Compound: O=c1c(O)c(-c2ccc(O)cc2)oc2cc(O)cc(O)c12 [Kaempferol]
- BUN (nephrotoxicity) [1, 7]: 31.5 ± 7.6 mg/dL
- Creatinine (nephrotoxicity) [1, 7]: 0.38 ± 0.09 mg/dL
- BUN (nephrotoxicity) [1, 8]: 58.8 ± 7.0 mg/dL
- Creatinine (nephrotoxicity) [1, 8]: 0.70 ± 0.09 mg/dL
- ALT (hepatotoxicity) [2, 7]: 82.2 ± 17.6 IU/L
- AST (hepatotoxicity) [2, 7]: 332.2 ± 27.1 IU/L
- ALT (hepatotoxicity) [2, 8]: 179.4 ± 12.9 IU/L
- AST (hepatotoxicity) [2, 8]: 395.6 ± 32.6 IU/L
- Antidote activity against toxicity (nephrotoxicity and hepatotoxicity) caused by APAP [4]: effective in reducing or eradicating toxicity

Compound: O=c1cc(-c2ccc(O)c(O)c2)oc2cc(O)cc(O)c12 [Luteolin]
- BUN (nephrotoxicity) [1, 7]: 23.7 ± 4.4 mg/dL
- Creatinine (nephrotoxicity) [1, 7]: 0.25 ± 0.07 mg/dL
- BUN (nephrotoxicity) [1, 8]: 31.5 ± 7.3 mg/dL
- Creatinine (nephrotoxicity) [1, 8]: 0.43 ± 0.08 mg/dL
- ALT (hepatotoxicity) [2, 7]: 57.1 ± 14.7 IU/L
- AST (hepatotoxicity) [2, 7]: 223.8 ± 15.5 IU/L
- ALT (hepatotoxicity) [2, 8]: 78.9 ± 15.7 IU/L
- AST (hepatotoxicity) [2, 8]: 279.1 ± 35.1 IU/L
- Antidote activity against toxicity (nephrotoxicity and hepatotoxicity) caused by APAP [4]: effective in reducing or eradicating toxicity

Compound: OC[C@@H](O)[C@@H](O)[C@H](O)[C@H](O)CO [Mannitol]
- BUN (nephrotoxicity) [1, 9]: 41.0 ± 2.6 mg/dL
- Creatinine (nephrotoxicity) [1, 9]: 0.56 ± 0.13 mg/dL
- ALT (hepatotoxicity) [2, 9]: 91.9 ± 8.4 IU/L
- AST (hepatotoxicity) [2, 9]: 365.7 ± 35.5 IU/L
- Antidote activity against toxicity (nephrotoxicity and hepatotoxicity) caused by APAP [4]: effective in reducing or eradicating toxicity

Compound: CC(=O)N[C@@H](CS)C(=O)O [NAC, N-acetylcysteine, reference compound]
- BUN (nephrotoxicity) [1, 9]: 48.4 ± 9.8 mg/dL
- Creatinine (nephrotoxicity) [1, 9]: 0.64 ± 0.05 mg/dL
- ALT (hepatotoxicity) [2, 9]: 206.7 ± 20.1 IU/L
- AST (hepatotoxicity) [2, 9]: 423.7 ± 38.1 IU/L
- Kidney histology (renal lesions), FIG. 1 ([3]; acetaminophen 1 g/kg plus antidote): Mild to moderate degenerations were seen; also recorded: reduced to mild to moderate level

Compound: O=C1C[C@@H](c2ccc(O)cc2)Oc2cc(O)cc(O)c21 [Nariagenin]
- BUN (nephrotoxicity) [1, 9]: 36.0 ± 7.8 mg/dL
- Creatinine (nephrotoxicity) [1, 9]: 0.32 ± 0.03 mg/dL
- ALT (hepatotoxicity) [2, 9]: 63.1 ± 11.6 IU/L
- AST (hepatotoxicity) [2, 9]: 231.1 ± 39.0 IU/L
- Antidote activity against toxicity (nephrotoxicity and hepatotoxicity) caused by APAP [4]: effective in reducing or eradicating toxicity

Compound: OC[C@H]1O[C@H](O[C@]2(CCl)O[C@H](CCl)[C@@H](O)[C@@H]2O)[C@H](O)[C@@H](O)[C@H]1Cl [Sucralose]
- BUN (nephrotoxicity) [1, 9]: 33.6 ± 2.7 mg/dL
- Creatinine (nephrotoxicity) [1, 9]: 0.40 ± 0.15 mg/dL
- ALT (hepatotoxicity) [2, 9]: 82.8 ± 8.4 IU/L
- AST (hepatotoxicity) [2, 9]: 288.4 ± 33.8 IU/L
- Antidote activity against toxicity (nephrotoxicity and hepatotoxicity) caused by APAP [4]: effective in reducing or eradicating toxicity

From patent US20210008101A1, “METHODS AND COMPOSITIONS FOR PREVENTING, REDUCING OR ERADICATING TOXICITY CAUSED BY ACETAMINOPHEN (APAP)” (SINEW PHARMA INC., priority 2018, published 2021)
